# Tests used:
# [1] = test system: carrageenin oedema in rats; assay: Antiphlogistic action against carrageenin oedema in rats; type: in vivo, rats (SIV 50); settings: for inhibition of the paw volume: 3 hours after carrageenin; for antiphlogistic properties (in words): carrageenin oedema
# Procedure: The experimental animals used were male rats (SIV 50), fasting for 20 hours, with a body weight of 110 to 160 g. Water was available ad libitum. After determination of the initial value of the paw volume of the right hind leg, the test substance was administered intragastrally as a suspension in 1% tragacanth slurry. 10 animals were used per dosage group. The volume administered was 20 ml./kg. body weight. The paw volume was measured by means of mercury displacement. 60 minutes after intragastral administration of the test substances, 0.1 ml. of a 1% carrageenin solution was injected subplantarily into the right hind paw. 1 and 3 hours after injection of the carrageenin, the paw volume of the oedematous paw was measured. The increase of the paw volume of the test substance-treated animals after 3 hours was compared with that of the control animals and the inhibition of the paw oedema by the test substance was calculated therefrom as a percentage.
# [2] = Acute toxicity on mice (LD50, 7 day observation); settings: mouse, in vivo, po; male NMRI mice, intragastral, 7 day observation
# Procedure: (§1) The determination of the acute toxicity was carried out on male mice (NMRI) with a body weight of from 18 to 23 g. All the experimental animals fasted for 20 hours before commencement of the experiment. Water was available ad libitum. Each dosage grouping contained 4 animals. The dosage sequence was logarithmic. The test compounds were administered intragastrally as suspensions in 1% tragacanth slurry. The volume administered was 20 ml./kg. body weight.
# (§2) The following Table gives the LD50 values after a 7 day observation period of the animals: […]
# [3] = test system: stomach ulcers in rats induced by indomethacin; assay: Ulcer-protective action on stomach ulcers in rats induced by indomethacin; type: in vivo, rats (SIV 50); settings: with 40 mg/kg indomethacin, 5 hours
# Procedure: The experimental animals used were male rats (SIV 50), fasted for 20 hours, with a body weight of 170 to 220 g. Water was available ad libitum. The animals were simultaneously given intragastrally 40 mg./kg. indomethacin and the test substance in the form of a suspension in 0.8% "Methocel". The control animals only received the corresponding dosage of indomethacin. 10 animals were used for each experimental group. The volume administered was 10 ml./kg. body weight. 5 hours after administration, the animals were sacrificed. After removal of the stomach and opening along the curvatura major, this was investigated with a stereomagnifier for the presence of ulcers. […] The ulcer index of the animals treated with indomethacin and test substance was compared with that of the control animals which had only been treated with indomethacin and the ulcer inhibition calculated therefrom as a percentage.
# [4] = test system: gastric juice secretion in rats; assay: Influence on gastric juice secretion in rats (Shay, pyloric ligature); type: in vivo, rats (SIV 50); settings: 4 hours after pyloric ligature
# Procedure: According to the method described by H. Shay et al. (Gastroenterology, 5, 43-61/1945), male rats (SIV 50) with a body weight of 160 to 200 g. were fasted for 48 hours before commencement of the experiment. Water was available to the animals ad libitum. The test substances were administered intragastrally as a suspension in 1% tragacanth slurry. The volume administered was 10 ml./kg. body weight. 8 animals were used per experimental group. One hour after administration of the substance, a pyloric ligature was applied under light ether narcosis. 4 hours after this intervention, the animals were sacrificed. The extirpated stomach was opened up along the curvatura major and the volume of the secretion was measured and compared with the data obtained from the control group.
# male mice (NMRI) = assay: Acute toxicity on mice (LD50, 7 day observation); settings: mouse, in vivo
# Procedure: as §1, §2
compound,measurement,setting,value
"N#CC1=C(SCCN2CCCC2)NC(=O)C1(c1ccccc1)c1cccs1 (stereo not drawn) [Example 6f, 5-oxo-4-phenyl-2-(2-pyrrolidinoethylthio)-4-(2-thienyl)-2-pyrroline-3-carbonitrile]",inhibition of the paw volume,[1]; 125 mg/kg intragastrally,24%
same,inhibition of the paw volume,[1]; 250 mg/kg intragastrally,45%
same,LD50 at 168 h,[2],> 1600 mg/kg
"CCN(CC)CCSC1=C(C#N)C(c2ccc(N(C)C)cc2)(c2cccnc2)C(=O)N1 (stereo not drawn) [Example 4a, 2-(2-diethylaminoethylthio)-4-(4-dimethylaminophenyl)-5-oxo-4-(3-pyridyl)-2-pyrrolin-3-carbonitril]",ulcer inhibition,[3]; 125 mg/kg intragastral,84%
same,inhibition of the paw volume,[1]; 50 mg/kg intragastrally,59%
same,inhibition of the paw volume,[1]; 100 mg/kg intragastrally,77%
same,antiphlogistic properties (in words),[1],most effective compounds
same,inhibition of gastric juice secretion,[4]; 62.5 mg/kg intragastral,45%
same,inhibition of gastric juice secretion,[4]; 125 mg/kg intragastral,64%
same,inhibition of gastric juice secretion,[4]; 250 mg/kg intragastral,73%
same,LD50 at 168 h,[2],800 mg/kg
"CCN(CC)CCCSC1=C(C#N)C(c2ccc(N(C)C)cc2)(c2cccnc2)C(=O)N1 (stereo not drawn) [Example 4k, 2-(3-diethylaminopropylthio)-4-(4-dimethylaminophenyl)-5-oxo-4-(3-pyridyl)-2-pyrroline-3-carbonitrile]",ulcer inhibition,[3]; 50 mg/kg intragastral,33%
same,ulcer inhibition,[3]; 100 mg/kg intragastral,94%
same,LD50 at 168 h,[2],300 mg/kg
"CN(C)c1ccc(C2(c3cccnc3)C(=O)NC(SCCN3CCCCC3)=C2C#N)cc1 (stereo not drawn) [Example 4d, 4-(4-dimethylaminophenyl)-2-(2-piperidinoethylthio)-5-oxo-4-(3-pyridyl)-2-pyrroline-3-carbonitrile]",inhibition of the paw volume,[1]; 50 mg/kg intragastrally,26%
same,inhibition of the paw volume,[1]; 125 mg/kg intragastrally,83%
same,inhibition of gastric juice secretion,[4]; 125 mg/kg intragastral,48%
same,inhibition of gastric juice secretion,[4]; 250 mg/kg intragastral,76%
same,LD50 at 168 h,[2],1600 mg/kg
"CSC1=C(C#N)C(c2ccc(N(C)C)cc2)(c2cccnc2)C(=O)N1 (stereo not drawn) [Example 4i, 4-(4-dimethylaminophenyl)-2-methylthio-5-oxo-4-(3-pyridyl)-2-pyrroline-3-carbonitrile]",ulcer inhibition,[3]; 50 mg/kg intragastral,88%
same,compatibility (in words),male mice (NMRI),good compatibility
same,LD50 at 168 h,[2],> 1600 mg/kg
"CN(C)c1ccc(C2(c3cccnc3)C(=O)NC(SCCN3CCCC3)=C2C#N)cc1 (stereo not drawn) [Example 4e, 4-(4-dimethylaminophenyl)-2-(2-pyrrolidinoethylthio)-5-oxo-4-(3-pyridyl)-2-pyrroline-3-carbonitrile]",inhibition of the paw volume,[1]; 25 mg/kg intragastrally,37%
same,inhibition of the paw volume,[1]; 50 mg/kg intragastrally,70%
same,antiphlogistic properties (in words),[1],most effective compounds
same,LD50 at 168 h,[2],> 1600 mg/kg
"CN(C)CCSC1=C(C#N)C(c2ccc(N(C)C)cc2)(c2cccnc2)C(=O)N1 (stereo not drawn) [Example 4g, 2-(2-dimethylaminoethylthio)-4-(4-dimethylaminophenyl)-5-oxo-4-(3-pyridyl)-2-pyrroline-3-carbonitrile]",inhibition of the paw volume,[1]; 50 mg/kg intragastrally,25%
same,inhibition of the paw volume,[1]; 100 mg/kg intragastrally,61%
same,LD50 at 168 h,[2],1600 mg/kg
"CN(C)c1ccc(C2(c3cccnc3)C(=O)NC(SCCN3CCOCC3)=C2C#N)cc1 (stereo not drawn) [Example 4b, 4-(4-dimethylaminophenyl)-2-(2-morpholinoethylthio)-5-oxo-4-(3-pyridyl)-2-pyrroline-3-carbonitrile]",inhibition of gastric juice secretion,[4]; 50 mg/kg intragastral,24%
same,inhibition of gastric juice secretion,[4]; 100 mg/kg intragastral,63%
same,inhibition of gastric juice secretion,[4]; 200 mg/kg intragastral,76%
same,LD50 at 168 h,[2],400 mg/kg
"N#CC1=C(SCCN2CCOCC2)NC(=O)C1(c1ccccc1)c1cccs1 (stereo not drawn) [Example 6c, 2-(2-morpholinoethylthio)-5-oxo-4-phenyl-4-(2-thienyl)-2-pyrroline-3-carbonitrile]",inhibition of the paw volume,[1]; 125 mg/kg intragastrally,6%
same,inhibition of the paw volume,[1]; 250 mg/kg intragastrally,45%
same,LD50 at 168 h,[2],> 1600 mg/kg

# Source: patent US4598076A, “2-pyrrolin-3-carbonitril-derivatives, pharmaceutical compositions containing them and their anti-inflammatory and ulcer protective activity” (Warner-Lambert Company, priority 1982, dated 1986)
